Experimental data from patent publication US20090156638A1, “Uses of nordihydroguaiaretic acid (NDGA) and derivatives thereof in preventing transmission of sexually transmitted diseases” (priority 2007, published 2009).
Like-named read-outs stand apart in the source and are kept apart here.

Experiments:
Sp1 enhancer sequence = conditions: ethidium displacement; G4N concentration causing 50% reduction of DNA-ethidium fluorescence
From the text: (§1) The […] (IE) ICP4 gene of HSV is essential for HSV replication.

HIV-1 = conditions: read-out: Inhibitory Concentration (IC50 or EC50), Cos cells
HSV-1^R = conditions: 40 μM; explanted mouse trigeminal ganglia
[1] = test system: acyclovir-resistant strains of HSV-1 (HSV-1^R); conditions: read-out: Inhibitory Concentration (IC50 or EC50)
HSV-2 = test: Mouse vaginal model of HSV-2 infection; assay type: in vivo, CF-1 mice; conditions: for animals infected: 10 mice per group
Method: The efficacies of […] (FIG. 8A) and […] (FIG. 8A) against HSV-2 in a mouse vaginal model system have also been examined. […] At the end of three days, the vaginal lavages were collected from the washings of the vagina regions. The status of the vaginal HSV-2 infection and replication were examined by their cytopathic effects on cultured human foreskin fibroblast cells. Monitoring and scoring were carried out by three persons independently.

SIVmac239 = conditions: read-out: Inhibitory Concentration (IC50 or EC50), 174 × CEM cells
HSV-1 [2] = conditions: read-out: Inhibitory Concentration (IC50 or EC50)
HSV-1 [3] = conditions: topical application for six days in guinea pigs, up to 50 mM; reference (34); cited from earlier work
HSV-1 [4] = conditions: for efficacy against HSV-1 cutaneous infection: day 6
Method: The dorsal cutaneous guinea pig model system is a well-established model for HSV-1 infection.
In FIGS. 6A-6D, for topical treatment with M4N sections of shaved and depilated dorsal guinea pig skin were infected equally were infected with HSV-1.
McKrae strain). […] Treatments were administered twice daily and photogragphs were taken at day 6 post-infection. […] Regions 1 and 4 were infected with high levels of HSV-1 (1×10^8 pfu/mL), regions 2 and 5 were infected with moderate levels of HSV-1 (1×10^6 pfu/mL) and regions 3 and 6 were infected with low levels of HSV-1 (1×10^4 pfu/mL).

HIV-1RTMF = conditions: read-out: Inhibitory Concentration (IC50 or EC50), H9 cells
HSV-1 [5] = test: Mutation-insensitivity: IC50 against HSV-1 over ten virus passages; assay type: cell-based
From the text: In contrast, host factors, unlike viral factors, are under no selective pressure to mutate and are in general structurally invariable. […] Table 1 compares the IC50 of M4N and acyclovir for ten passages.

[6] = test system: Sp1 transcription factor binding to the major groove of Sp1 site; conditions: by competition for binding or altering DNA conformation
From the text: as §1

For `C[C@H](Cc1ccc(OC(=O)CN(C)C)c(OC(=O)CN(C)C)c1)[C@@H](C)Cc1ccc(OC(=O)CN(C)C)c(OC(=O)CN(C)C)c1` [G4N, tetra-O—(N,N-dimethyl)glycyl-nordihydroguaiaretic acid], the “apparent equilibrium binding constant (Kapp)” value (Sp1 enhancer sequence) was 3e+06 M⁻¹, the IC50 (HIV-1) was 36 µM and the “decrease in HSV reactivation” value (HSV-1^R) was 40 μM had 67%. It also gave an IC50 ([1]; HSV-1^R F59878) of 2.1 µM, an IC50 ([1]; HSV-1^R T28387) of 4.3 µM and an average infection score (HSV-2; 0.1 mM) of 0.5. The infection (HSV-2; 0.1 mM) was about 12.5%, the animals infected (HSV-2; 0.1 mM, vaginal lavage at three days) was 1 out of 10 and the animals infected (HSV-2; 10 mM) was “no infections detected”. The animals infected (HSV-2; 100 mM) was “no infections detected”, the IC50 (SIVmac239) was 5 µM and the IC50 (HSV-1 [2]; HSV-1 McKrae (Vero from row above)) was 4.5 µM. The IC50 (HSV-1 [2]; Vero cells, HSV-1 KOS) was 3.6 µM, the toxicity (HSV-1 [3]) was “no evidence of toxicity” and the “efficacy against HSV-1 cutaneous infection” value (HSV-1 [4]; 5 mM topically twice daily, 1×10^8 pfu/mL McKrae) was “semi-effective”. The “efficacy against HSV-1 cutaneous infection” value (HSV-1 [4]; 10 mM topically twice daily, 1×10^8 pfu/mL McKrae) was “more effective”, the “efficacy against HSV-1 cutaneous infection” value (HSV-1 [4]; 150 mM topically twice a day, 1×10^4 to 1×10^8 pfu/mL) was “extremely effective” and the “inhibition of HSV-1 induced cutaneous lesion formation and viral shedding” value (HSV-1 [4]; topical application, guinea pig) was “effectively inhibited HSV-1 induced cutaneous lesion formation and viral shedding”. For the same molecule, the IC50 (HIV-1RTMF) was 12 µM.

For `COc1cc(CC(C)C(C)Cc2ccc(O)c(O)c2)ccc1O` (stereo not shown) [Mal.4, 3′-O-methyl nordihydroguaiaretic acid], the IC50 (HIV-1) was 25 µM.

In the case of `Nc1nc2c(ncn2COCCO)c(=O)[nH]1` [Acyclovir, acyclovir, reference compound], the IC50 (HSV-1 [5]; Human alphaherpesvirus 1, HSV-1 passage 1) is reported as 7.54 µM, the IC50 (HSV-1 [5]; Human alphaherpesvirus 1, HSV-1 passage 2) is reported as 37.8 µM and the IC50 (HSV-1 [5]; Human alphaherpesvirus 1, HSV-1 passage 3) is reported as 88.8 µM. The IC50 (HSV-1 [5]; Human alphaherpesvirus 1, HSV-1 passage 4) was 138 µM, the IC50 (HSV-1 [5]; Human alphaherpesvirus 1, HSV-1 passage 5) was 111 µM and the IC50 (HSV-1 [5]; Human alphaherpesvirus 1, HSV-1 passage 6) was 131 µM. It also gave an IC50 (HSV-1 [5]; Human alphaherpesvirus 1, HSV-1 passage 7) of 190 µM, an IC50 (HSV-1 [5]; Human alphaherpesvirus 1, HSV-1 passage 8) of 444 µM and an IC50 (HSV-1 [5]; Human alphaherpesvirus 1, HSV-1 passage 9) of 379 µM. For the same molecule, the IC50 (HSV-1 [5]; Human alphaherpesvirus 1, HSV-1 passage 10) was 444 µM.

For `CC(Cc1ccc(OCCN2CCCCC2)c(OCCN2CCCCC2)c1)C(C)Cc1ccc(OCCN2CCCCC2)c(OCCN2CCCCC2)c1` (stereo not shown) [P4N, tetra-O—(N-ethylpiperidinyl)-nordihydroguaiaretic acid], the “disruption of Sp1 transcription factor binding” value [6] was “disrupt Sp1 transcription factor binding”, the “average scale of infection” value (HSV-2; 10 mM) was 0.19 and the animals infected (HSV-2; 10 mM) was 2 of 10. For the same molecule, the “efficacy against vaginal HSV-2 infection” value (HSV-2; in PBS) was “quite effective”.
